Measured values as given in patent publication US10179782B2, “Substituted sulfonamide compounds” (Genentech, Inc., priority 2016, dated 2019).

What follows are compounds tested against T1, human TRPA1 (Homo sapiens, UniProt O75762) (assay: TRPA1 FLIPR Tetra calcium influx assay in CHO cells (block of cinnamaldehyde-induced calcium influx)). Conditions: Table 2; CHO cells expressing TRPA1; agonist cinnamaldehyde 75 uM; 20 min compound incubation; Hill coefficient fixed to 1.5; read-out: hTRPA1 CHO Ca2+ AUC EVO (IC50).
T1 construct: expressed in transfected cells; host or cells: CHO cells
Format: cell-based
Procedure: IC50s (effective concentration) of compounds on the human and rat TRPA1 channels were determined using a FLIPR Tetra instrument. CHO cells expressing TRPA1 were plated into 384-well plates, incubated overnight at 37 C, and loaded with BD calcium indicator dye for 1 hr at 37° C. followed by 15 minutes at room temperature. The assay buffer was Hank's Balanced Salt Solution (HBSS) containing 20 mM HEPES (pH readjusted to 7.4) along with 0.02% BSA.
Following dye load and plate cool down, compounds were added to the cells using FLIPR Tetra. Plates were then incubated with compounds for 20 minutes at room temperature prior to adding agonist. Following this incubation, ˜EC80 concentration of cinnamaldehyde (75 uM for human TRPA1 and 45 uM for rat TRPA1) was added to active the channels and block of cinnamaldehyde induced calcium influx was measured.
IC50s were fit with a standard Hill function, keeping the Hill coefficient (n) fixed to 1.5. Fixing the Hill coefficient will generally reduce variability of the IC50 determination. The IC50s were individually examined to make sure the MIN and MAX points were set correctly prior to validation of the results.

T1 sequence (O75762 whole entry): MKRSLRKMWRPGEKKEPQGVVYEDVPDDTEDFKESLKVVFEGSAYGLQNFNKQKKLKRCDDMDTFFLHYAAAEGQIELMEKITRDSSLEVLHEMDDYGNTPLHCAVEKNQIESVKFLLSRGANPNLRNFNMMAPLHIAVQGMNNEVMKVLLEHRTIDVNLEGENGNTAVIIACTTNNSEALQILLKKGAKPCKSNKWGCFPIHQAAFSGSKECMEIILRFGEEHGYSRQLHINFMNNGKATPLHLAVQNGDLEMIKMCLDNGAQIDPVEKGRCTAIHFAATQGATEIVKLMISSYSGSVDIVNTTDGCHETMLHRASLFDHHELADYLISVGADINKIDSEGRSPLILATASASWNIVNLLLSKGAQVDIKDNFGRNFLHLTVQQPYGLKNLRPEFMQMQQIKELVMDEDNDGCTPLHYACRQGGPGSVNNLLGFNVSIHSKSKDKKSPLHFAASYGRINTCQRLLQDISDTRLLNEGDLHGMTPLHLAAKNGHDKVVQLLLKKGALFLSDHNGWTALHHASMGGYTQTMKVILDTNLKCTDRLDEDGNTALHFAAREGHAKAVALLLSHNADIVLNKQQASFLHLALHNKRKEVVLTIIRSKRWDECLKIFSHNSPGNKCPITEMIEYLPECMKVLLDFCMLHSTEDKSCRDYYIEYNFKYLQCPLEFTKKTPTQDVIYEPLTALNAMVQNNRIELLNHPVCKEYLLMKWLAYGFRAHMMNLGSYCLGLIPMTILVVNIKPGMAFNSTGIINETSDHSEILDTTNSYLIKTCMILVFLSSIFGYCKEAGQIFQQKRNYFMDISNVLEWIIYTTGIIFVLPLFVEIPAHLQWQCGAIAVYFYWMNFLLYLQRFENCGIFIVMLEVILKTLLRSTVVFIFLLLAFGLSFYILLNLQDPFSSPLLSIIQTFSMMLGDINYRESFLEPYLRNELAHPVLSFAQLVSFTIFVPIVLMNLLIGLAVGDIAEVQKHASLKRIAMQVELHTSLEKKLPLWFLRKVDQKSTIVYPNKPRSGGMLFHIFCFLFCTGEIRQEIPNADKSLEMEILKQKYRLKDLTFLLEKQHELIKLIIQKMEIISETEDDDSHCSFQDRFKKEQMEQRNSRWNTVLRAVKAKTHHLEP

C[C@H]1[C@H](F)C[C@@H](C(=O)NCc2cn(-c3cnc(C(F)(F)F)nc3)nc2C(F)F)N1S(=O)(=O)c1ccc(F)cc1 [Example 40, (2S,4R,5S)-N-[[3-(difluoromethyl)-1-[2-(trifluoromethyl)pyrimidin-5-yl]-1H-pyrazol-4-yl]methyl]-4-fluoro-1-[(4-fluorobenzene)sulfonyl]-5-methylpyrrolidine-2-carboxamide] and C[C@H]1[C@H](F)C[C@@H](C(=O)NCc2cn(-c3cnc(C(F)(F)F)nc3)nc2Cl)N1S(=O)(=O)c1ccc(F)cc1 [Example 62, (2S,4R,5S)-N-[[3-chloro-1-[2-(trifluoromethyl)pyrimidin-5-yl]pyrazol-4-yl]methyl]-4-fluoro-1-(4-fluorophenyl)sulfonyl-5-methyl-pyrrolidine-2-carboxamide] are within 1.5-fold of each other in IC50: 43.1 nM for the first, 58.2 nM for the second.

First: C[C@H]1[C@H](F)C[C@@H](C(=O)NCc2cc(-c3cnc(C(F)(F)F)nc3)ncc2F)N1S(=O)(=O)c1cccc(F)c1 [Example 41, (2S,4R,5S)-4-fluoro-N-((5-fluoro-2-(2-(trifluoromethyl)pyrimidin-5-yl)pyridin-4-yl)methyl)-1-(3-fluorophenylsulfonyl)-5-methylpyrrolidine-2-carboxamide]
Second: C[C@H]1[C@H](F)C[C@@H](C(=O)NCc2cc(-c3cnc(C(F)(F)F)nc3)ncc2C#N)N1S(=O)(=O)c1ccc(F)cc1 [Example 51, (2S,4R,5S)-N-[[5-cyano-2-[2-(trifluoromethyl)pyrimidin-5-yl]-4-pyridyl]methyl]-4-fluoro-1-(4-fluorophenyl)sulfonyl-5-methyl-pyrrolidine-2-carboxamide]
The IC50 of the first is 2.6-fold higher: 40.5 nM for the first, 15.5 nM for the second.

Going from C[C@H]1[C@H](F)C[C@@H](C(=O)NCc2cc(-c3cnc(C(F)(F)F)nc3)nc(N3CCC3)n2)N1S(=O)(=O)c1ccc(F)cc1 [Example 42, (2S,4R,5S)-N-((2-(azetidin-1-yl)-2′-(trifluoromethyl)-4,5′-bipyrimidin-6-yl)methyl)-4-fluoro-1-(4-fluorophenylsulfonyl)-5-methylpyrrolidine-2-carboxamide] to C[C@H]1[C@H](F)C[C@@H](C(=O)NCc2cc(-c3cnc(C(F)(F)F)nc3)c(C3CC3)cn2)N1S(=O)(=O)c1ccc(F)cc1 [Example 49, (2S,4R,5S)-N-[[5-cyclopropyl-4-[2-(trifluoromethyl)pyrimidin-5-yl]-2-pyridyl]methyl]-4-fluoro-1-(4-fluorophenyl)sulfonyl-5-methyl-pyrrolidine-2-carboxamide], the IC50 rises from 21.9 nM to 36.7 nM (1.7-fold). The first is the more potent here.

C[C@H]1[C@H](F)C[C@@H](C(=O)NCc2ccc(F)c(-c3cnc(C(F)(F)F)nc3)c2)N1S(=O)(=O)c1ccc(F)cc1 [Example 43, (2S,4R,5S)-4-fluoro-N-(4-fluoro-3-(2-(trifluoromethyl)pyrimidin-5-yl)benzyl)-1-(4-fluorophenylsulfonyl)-5-methylpyrrolidine-2-carboxamide] and C[C@H]1[C@H](F)C[C@@H](C(=O)NCc2cc(-c3cnc(C(F)(F)F)nc3)ccc2F)N1S(=O)(=O)c1ccc(F)cc1 [Example 44, (2S,4R,5S)-4-fluoro-N-(2-fluoro-5-(2-(trifluoromethyl)pyrimidin-5-yl)benzyl)-1-(4-fluorophenylsulfonyl)-5-methylpyrrolidine-2-carboxamide] are within 1.5-fold of each other in IC50: 9.39 nM for the first, 7.34 nM for the second.

Compared with C[C@H]1[C@H](F)C[C@@H](C(=O)NCc2cc(F)cc(-c3cnc(C(F)(F)F)cn3)c2)N1S(=O)(=O)c1ccc(F)cc1 [Example 45, (2S,4R,5S)-4-fluoro-N-(3-fluoro-5-(5-(trifluoromethyl)pyrazin-2-yl)benzyl)-1-(4-fluorophenylsulfonyl)-5-methylpyrrolidine-2-carboxamide], C[C@H]1[C@H](F)C[C@@H](C(=O)NCc2cc(OCc3cncc(C(F)(F)F)c3)c(F)cn2)N1S(=O)(=O)c1ccc(F)cc1 [Example 48, (2S,4R,5S)-4-fluoro-N-((5-fluoro-4-((5-(trifluoromethyl)pyridin-3-yl)methoxy)pyridin-2-yl)methyl)-1-(4-fluorophenylsulfonyl)-5-methylpyrrolidine-2-carboxamide] is 13-fold higher in IC50: 8.05 nM for the first, 105 nM for the second.

First: C[C@H]1[C@H](F)C[C@@H](C(=O)NCc2cn(-c3cnc(C(F)(F)F)nc3)nc2C(F)(F)F)N1S(=O)(=O)c1ccc(F)cc1 [Example 46, (2S,4R,5S)-4-fluoro-1-(4-fluorophenylsulfonyl)-5-methyl-N-((3-(trifluoromethyl)-1-(2-(trifluoromethyl)pyrimidin-5-yl)-1H-pyrazol-4-yl)methyl)pyrrolidine-2-carboxamide]
Second: C[C@H]1[C@H](F)C[C@@H](C(=O)NCc2cn([C@H]3CC[C@H](C(F)(F)F)CC3)nc2C(F)(F)F)N1S(=O)(=O)c1ccc(F)cc1 [Example 50, (2S,4R,5S)-4-fluoro-1-(4-fluorophenyl)sulfonyl-5-methyl-N-[[3-(trifluoromethyl)-1-[4-(trifluoromethyl)cyclohexyl]pyrazol-4-yl]methyl]pyrrolidine-2-carboxamide]
The IC50 of the first is 1.9-fold lower: 26.2 nM for the first, 50.5 nM for the second.

First: C[C@H]1[C@H](F)C[C@@H](C(=O)NCc2cc(OCc3ccc(F)cn3)c(F)cn2)N1S(=O)(=O)c1ccc(F)cc1 [Example 47, (2S,4R,5S)-4-fluoro-N-((5-fluoro-4-((5-fluoropyridin-2-yl)methoxy)pyridin-2-yl)methyl)-1-(4-fluorophenylsulfonyl)-5-methylpyrrolidine-2-carboxamide]
Second: C[C@H]1[C@H](F)C[C@@H](C(=O)NCc2cc(-c3cnc(C(F)(F)F)s3)ncn2)N1S(=O)(=O)c1ccc(F)cc1 [Example 56, (2S,4R,5S)-4-fluoro-1-(4-fluorophenyl)sulfonyl-5-methyl-N-[[6-[2-(trifluoromethyl)thiazol-5-yl]pyrimidin-4-yl]methyl]pyrrolidine-2-carboxamide]
The IC50 of the first is 28-fold higher: 1900 nM for the first, 66.9 nM for the second. The second is the more potent here.

First: C[C@H]1[C@H](F)C[C@@H](C(=O)NCc2cc([C@H]3CC[C@@H](C(F)(F)F)CC3)c(F)cn2)N1S(=O)(=O)c1ccc(F)cc1 [Example 52, (2S,4R,5S)-4-fluoro-1-(4-fluorophenyl)sulfonyl-N-[[5-fluoro-4-[4-(trifluoromethyl)cyclohexyl]-2-pyridyl]methyl]-5-methyl-pyrrolidine-2-carboxamide]
Second: C[C@H]1[C@H](F)C[C@@H](C(=O)NCc2cc([C@H]3CC[C@H](C(F)(F)F)CC3)c(F)cn2)N1S(=O)(=O)c1ccc(F)cc1 [Example 53, (2S,4R,5S)-4-fluoro-1-(4-fluorophenyl)sulfonyl-N-[[5-fluoro-4-[4-(trifluoromethyl)cyclohexyl]-2-pyridyl]methyl]-5-methyl-pyrrolidine-2-carboxamide]
The IC50 of the first is 7.3-fold lower: 8.9 nM for the first, 64.6 nM for the second. The first is the more potent here.

C[C@H]1[C@H](F)C[C@@H](C(=O)NCc2cc([C@H]3CC[C@@H](C(F)(F)F)CC3)ncc2F)N1S(=O)(=O)c1ccc(F)cc1 [Example 54, (2S,4R,5S)-4-fluoro-1-(4-fluorophenyl)sulfonyl-N-[[5-fluoro-2-[4-(trifluoromethyl)cyclohexyl]-4-pyridyl]methyl]-5-methyl-pyrrolidine-2-carboxamide] and C[C@H]1[C@H](F)C[C@@H](C(=O)NCc2cc([C@H]3CC[C@H](C(F)(F)F)CC3)ncc2F)N1S(=O)(=O)c1ccc(F)cc1 [Example 55, (2S,4R,5S)-4-fluoro-1-(4-fluorophenyl)sulfonyl-N-[[5-fluoro-2-[4-(trifluoromethyl)cyclohexyl]-4-pyridyl]methyl]-5-methyl-pyrrolidine-2-carboxamide] are within 1.5-fold of each other in IC50: 6.38 nM for the first, 5.89 nM for the second.

Going from O=C(NCc1cc(N2CCC(OC(F)(F)F)CC2)ncc1F)[C@@H]1C[C@@H](F)CN1S(=O)(=O)c1ccc(F)cc1 [Example 57, (2S,4R)-4-fluoro-1-(4-fluorophenyl)sulfonyl-N-[[5-fluoro-2-[4-(trifluoromethoxy)-1-piperidyl]-4-pyridyl]methyl]pyrrolidine-2-carboxamide] to O=C(NCc1cc(-c2ccc(S(F)(F)(F)(F)F)cc2)ncc1F)[C@@H]1C[C@@H](F)CN1S(=O)(=O)c1ccc(F)cc1 [Example 59, (2S,4R)-4-fluoro-N-[[5-fluoro-2-[4-(pentafluoro-sulfanyl)phenyl]-4-pyridyl]methyl]-1-(4-fluorophenyl)sulfonyl-pyrrolidine-2-carboxamide], the IC50 rises from 49.4 nM to 161 nM (3.3-fold).

Compared with C[C@H]1CCC[C@@H](C(=O)NCc2cc(-c3cnc(C(F)(F)F)nc3)ncc2F)N1S(=O)(=O)c1ccc(F)cc1 [Example 58, (2S,6S)-1-(4-fluorophenyl)sulfonyl-N-[[5-fluoro-2-[2-(trifluoromethyl)pyrimidin-5-yl]-4-pyridyl]methyl]-6-methyl-piperidine-2-carboxamide], O=C(NCc1cc(-c2cnc(C(F)(F)F)nc2)ncc1F)[C@@H]1CC[C@H](C(F)(F)F)N1S(=O)(=O)c1ccc(F)cc1 [Example 61, (2S,5R)-1-(4-fluorophenyl)sulfonyl-N-[[5-fluoro-2-[2-(trifluoromethyl)pyrimidin-5-yl]-4-pyridyl]methyl]-5-(trifluoromethyl)pyrrolidine-2-carboxamide] is 3.4-fold lower in IC50: 73.9 nM for the first, 21.6 nM for the second. The second is the more potent here.

Work on CC(C)Oc1nc(CNC(=O)[C@@H]2C[C@@H](F)CN2S(=O)(=O)c2ccc(F)cc2)cc(-c2cnc(C(F)(F)F)nc2)n1 [Example 60, (2S,4R)-4-fluoro-1-(4-fluorophenyl)sulfonyl-N-[[2-isopropoxy-6-[2-(trifluoromethyl)pyrimidin-5-yl]pyrimidin-4-yl]methyl]pyrrolidine-2-carboxamide] yielded an IC50 of 83.1 nM.
